This note sets out measurements from ChEMBL document CHEMBL4145552, “Marine derived xyloketal derivatives exhibit anti-stress and anti-ageing effects through HSF pathway in Caenorhabditis elegans” (2018).

For test [1], the system named is Caenorhabditis elegans. Description: Protection against thermal stress in Caenorhabditis elegans N2 assessed as increase in mean survival time at 100 uM at 37 degC measured every 1 hr post treatment relative to control. Type of test: functional.
In test [2] the test system is Caenorhabditis elegans. The test is described as follows: Anti-ageing activity in Caenorhabditis elegans N2 assessed as increase in rate of health span in maximal lifespan at 300 uM. Type of test: functional, organism-based.
Test [3] concerns Caenorhabditis elegans. Description: In vivo activation of HSF-1 pathway in Caenorhabditis elegans N2 assessed as increase in HSP70 protein expression by Western blot analysis relative to control. Type of test: functional. Background: In western blotting, separated proteins are transferred to a membrane and probed.
For test [4], the system named is Caenorhabditis elegans. The test is described as follows: Anti-ageing activity in Caenorhabditis elegans N2 assessed as increase in life span at 300 uM relative to control. Type of test: functional.
In test [5] the test system is Caenorhabditis elegans. The test is described as follows: Anti-ageing activity in Caenorhabditis elegans N2 assessed as increase in rate of health span on pumping in lifespan at 300 uM measured for 10 secs at 2 days time interval up to 21 days by dissecting microscopic method relative to control. Type of test: functional.
Test [6] relates to Caenorhabditis elegans. The test is described as follows: Protection against thermal stress in Caenorhabditis elegans PS3551 harboring HSF-1 mutant assessed as mean survival time at 37 degC measured every 1 hr up to 8 hrs post treatment (reference value: 4.37 +/- 0.1 hrs). Type of test: functional.
The test system of test [7] is Caenorhabditis elegans. Description: Anti-ageing activity in Caenorhabditis elegans N2 assessed as increase in rate of health span on bending in lifespan at 300 uM measured for 3 secs at 3 days time interval up to 16 days relative to control. Type of test: functional.
In test [8] the test system is Caenorhabditis elegans. The test is described as follows: Anti-ageing activity in Caenorhabditis elegans PS3551 harboring HSF-1 mutant assessed as increase in life span by measuring mean survival time measured up to 20 days post treatment (reference value: 10.89 +/- 0.17 day). Type of test: functional.
Test [9] concerns Caenorhabditis elegans. The test is described as follows: Protection against thermal stress in Caenorhabditis elegans N2 assessed as increase in mean survival time at 300 uM at 37 degC measured every 1 hr post treatment relative to control. Type of test: functional.
The test system of test [10] is Caenorhabditis elegans. The test is described as follows: Protection against amyloid beta aggregation-induced paralysis in Caenorhabditis elegans CL4176 harboring temperature-inducible human amyloid beta (3 to 42) transgene assessed as time delay in progression of paralysis at 26 degC after 36 hrs. Type of test: functional.

Active and inactive are the calls of the source. The calls are words filed in the database; no cut-off is given here.

With `C[C@H]1CO[C@]2(C)Oc3c(c4c(c5c3C[C@@H]3[C@@H](C)CO[C@]3(C)O5)CN(c3ccc(F)cc3)CO4)C[C@H]12`, the outcome in the test with Caenorhabditis elegans [1] was Active.
On the same count and under the same terms, the same measure for `C[C@H]1CO[C@]2(C)Oc3c(c4c(c5c3C[C@@H]3[C@@H](C)CO[C@]3(C)O5)CN(c3ccc(C(=O)O)cc3)CO4)C[C@H]12`: “Active”.
On the same count and under the same terms, in the case of `C[C@H]1CO[C@]2(C)Oc3c(c4c(c5c3C[C@@H]3[C@@H](C)CO[C@]3(C)O5)CN(c3ccc(Cl)cc3)CO4)C[C@H]12` it was “Active”.
Still for that read-out and setting: the same measure for `C[C@H]1CO[C@]2(C)Oc3cc(OC/C=C/c4ccccc4)c4c(c3C[C@H]12)O[C@@]1(C)OC[C@H](C)[C@H]1C4`: “inactive”; for `C[C@H]1CO[C@]2(C)Oc3c(c(O)c(C(=O)O)c4c3C[C@@H]3[C@@H](C)CO[C@]3(C)O4)C[C@H]12`: “Active”; for `C[C@H]1CO[C@]2(C)Oc3c(c4c(c5c3C[C@@H]3[C@@H](C)CO[C@]3(C)O5)CN(c3ccc([N+](=O)[O-])cc3)CO4)C[C@H]12`: “inactive”.
`C[C@H]1CO[C@]2(C)Oc3c(c4c(c5c3C[C@@H]3[C@@H](C)CO[C@]3(C)O5)CN(c3ccc(O)cc3)CO4)C[C@H]12`: the Activity was 15.38% in the test with Caenorhabditis elegans [1]; 28% in the test with Caenorhabditis elegans [3]; 11% in the test with Caenorhabditis elegans [4]; 16% in the test on Caenorhabditis elegans [5]; “<=22%” in the test on Caenorhabditis elegans [7]; “<=23.96%” with Caenorhabditis elegans [9]. Moreover, the result in the test with Caenorhabditis elegans [2] was Active. Besides, the MST with Caenorhabditis elegans [6] stood at 4.32 h; with Caenorhabditis elegans [8], 10.99 days. For the same compound, the Time with Caenorhabditis elegans [10] was 2.8 h.
Turning to `O=c1c(O)c(-c2ccc(O)c(O)c2)oc2cc(O)cc(O)c12` [QUERCETIN], the Activity with Caenorhabditis elegans [1] is recorded as 8.81%.
Same read-out and setting: in the case of `CC1CC2Cc3c(cc(O)c4c3OC3(C)OC(C)CC3C4)OC2(C)O1` (stereo not given) it was “inactive”.
With `COC(=O)CNC(=O)c1c(O)c2c(c3c1O[C@@]1(C)OC[C@H](C)[C@H]1C3)O[C@@]1(C)OC[C@H](C)[C@H]1C2`, the outcome in the test with Caenorhabditis elegans [1] and in the test with Caenorhabditis elegans [9] was Active.
`C[C@H]1CO[C@]2(C)Oc3c(c4c(c5c3C[C@@H]3[C@@H](C)CO[C@]3(C)O5)CN(c3ccccc3)CO4)C[C@H]12`: in the test with Caenorhabditis elegans [1], the result was inactive.
For `COc1ccc(NC(=O)c2c(O)c3c(c4c2O[C@@]2(C)OC[C@H](C)[C@H]2C4)O[C@@]2(C)OC[C@H](C)[C@H]2C3)cc1`, the result in the test with Caenorhabditis elegans [1] was Active.
The same measure, in the same setting: the same measure for `COC(=O)C(Cc1cc2ccccc2[nH]1)NC(=O)c1c(O)c2c(c3c1O[C@@]1(C)OC[C@H](C)[C@H]1C3)O[C@@]1(C)OC[C@H](C)[C@H]1C2` (stereo not given in full): “Active”.
On to `COC1(C)CCc2c(cc(O)c3c2OC(C)(OC)CC3)O1` (stereo not given), for which, in the test on Caenorhabditis elegans [1], the result was Active.
On the same count and under the same terms, in the case of `COc1ccc(N2COc3c4c(c5c(c3C2)O[C@@]2(C)OC[C@H](C)[C@H]2C5)O[C@@]2(C)OC[C@H](C)[C@H]2C4)cc1` it was “Active”.
Take `C[C@H]1CO[C@]2(C)Oc3c(c4c(c5c3C[C@@H]3[C@@H](C)CO[C@]3(C)O5)CN(c3ccc(I)cc3)CO4)C[C@H]12`: the outcome with Caenorhabditis elegans [1] was Active.
As to `C[C@H]1CO[C@]2(C)Oc3c(c4c(c5c3C[C@@H]3[C@@H](C)CO[C@]3(C)O5)CN(C)CO4)C[C@H]12`, the result with Caenorhabditis elegans [1] was Active.
In the case of `CCCCOc1cc2c(c3c1C[C@@H]1[C@@H](C)CO[C@]1(C)O3)C[C@@H]1[C@@H](C)CO[C@]1(C)O2`, the result with Caenorhabditis elegans [1] and with Caenorhabditis elegans [9] was Active.
On to `COC(=O)c1c(O)c2c(c3c1OC1OCCCC1C3)OC1OCCCC1C2` (stereo not given), for which the result in the test with Caenorhabditis elegans [1] was Active.
Same read-out and setting: the same measure for `CCCCN1COc2c3c(c4c(c2C1)O[C@@]1(C)OC[C@H](C)[C@H]1C4)O[C@@]1(C)OC[C@H](C)[C@H]1C3`: “Active”.
As for `COC(=O)c1c(O)c2c(c3c1O[C@@]1(C)OC[C@H](C)[C@H]1C3)O[C@@]1(C)OC[C@H](C)[C@H]1C2`, the outcome in the test on Caenorhabditis elegans [1] and in the test on Caenorhabditis elegans [9] was Active.
Take `C[C@H]1CO[C@]2(C)Oc3cc(O)c4c(c3C[C@H]12)O[C@@]1(C)OC[C@H](C)[C@H]1C4`: the result in the test with Caenorhabditis elegans [1] and with Caenorhabditis elegans [9] was Active.
Regarding `COC(=O)C(Cc1ccc(O)cc1)NC(=O)c1c(O)c2c(c3c1O[C@@]1(C)OC[C@H](C)[C@H]1C3)O[C@@]1(C)OC[C@H](C)[C@H]1C2` (stereo not given in full), the outcome in the test on Caenorhabditis elegans [1] and in the test on Caenorhabditis elegans [9] was Active.
As for `C[C@H]1CO[C@]2(C)Oc3c(c4c(c5c3C[C@@H]3[C@@H](C)CO[C@]3(C)O5)CN(c3ccc(Br)cc3)CO4)C[C@H]12`, the result in the test with Caenorhabditis elegans [1] and in the test with Caenorhabditis elegans [9] was Active.
For the compound `Oc1cc2c(c3c1CC1CCCOC1O3)CC1CCCOC1O2` (stereo not given), the result in the test on Caenorhabditis elegans [1] was Active.
Still for that read-out and setting: in the case of `C[C@H]1CO[C@]2(C)Oc3c(c(O)c(C(=O)NCCc4ccc(O)cc4)c4c3C[C@@H]3[C@@H](C)CO[C@]3(C)O4)C[C@H]12` it was “Active”; in that of `C[C@H]1CO[C@]2(C)Oc3c(c(O)c(C(=O)Nc4ccc(F)cc4)c4c3C[C@@H]3[C@@H](C)CO[C@]3(C)O4)C[C@H]12`, “Active”; in that of `CNC(=O)c1c(O)c2c(c3c1OC1OCCCC1C3)OC1OCCCC1C2` (stereo not given), “Active”.
As to `CCCCSC(=O)c1c(O)c2c(c3c1OC1OCCCC1C3)OC1OCCCC1C2` (stereo not given), in the test on Caenorhabditis elegans [1], the outcome was Active.
Still for that read-out and setting: in the case of `C[C@H]1CO[C@]2(C)Oc3c(c4c(c5c3C[C@@H]3[C@@H](C)CO[C@]3(C)O5)CN(CCOCCO)CO4)C[C@H]12` it was “Active”.
